Measurements published in patent US20070128217A1 (priority 2003, published 2007).

Legend:
[1] = system: rabbit serum obtained by immunizing a rabbit with the SARS-CoV strain Frankfurt 1; assay type: binding; set-up: Binding of a rabbit serum to linear peptides / Binding of a rabbit serum to looped peptides / Rabbit serum linear peptides / Rabbit serum looped peptides / Binding of a rabbit serum to linear peptides of protein N of SARS-CoV Urbani (Rabbit serum linear peptides) / Binding of a rabbit serum to looped/cyclic peptides of protein N of SARS-CoV Urbani (Rabbit serum looped peptides): unit not given here
[2] = system: control sera (pooled serum of ten healthy LUMC hospital workers; commercial negative donor pooled serum from the Dutch bloodbank); assay type: binding, human; set-up: Binding of Control serum LUMC to linear peptides / Binding of Control serum Blood-bank to linear peptides / Binding of Control serum LUMC to looped peptides / Binding of Control Serum Blood-Bank to Looped peptides / Binding of Control serum LUMC to linear peptides of the protein M of SARS-CoV Urbani / Binding of Control serum Blood-bank to linear peptides of the protein M of SARS-CoV Urbani / Binding of Control serum LUMC to looped peptides of the protein M of SARS-CoV Urbani / Binding of Control Serum Blood-Bank to Looped peptides of the protein M of SARS-CoV Urbani: unit not given here
[3] = system: antibodies in sera from SARS patients (sera 1a, 1b, 2, 6, 37, 62, London, SARS-yellow, SARS-green); assay type: binding, human; set-up: Binding of serum 6 to linear peptides of protein X1 of SARS-CoV Urbani / Binding of serum 37 to linear peptides of protein X1 of SARS-CoV Urbani / Binding of serum 6 to looped/cyclic peptide (PEPSCAN-ELISA) / Binding of serum 37 to looped/cyclic peptide (PEPSCAN-ELISA) / Binding of serum 37 to looped/cyclic peptides of protein X1 of SARS-CoV Urbani / Binding of serum 6 to linear peptides of protein X2 / Binding of serum 37 to linear peptides of protein X2 / Binding of serum 37 to looped/cyclic peptides of protein X2 of SARS-CoV Urbani / Binding of serum 6 to linear peptides of protein M of SARS-CoV Urbani / Binding of serum 37 to linear peptides of protein M of SARS-CoV Urbani / Binding of serum 6 to looped/cyclic peptides of protein M of SARS-CoV Urbani / Binding of serum 37 to looped/cyclic peptides of protein M of SARS-CoV Urbani / Binding of serum 6 to linear peptides of protein X3 of SARS-CoV Urbani / Binding of serum 37 to linear peptides of protein X3 of SARS-CoV Urbani / Binding of serum 37 to looped/cyclic peptides of protein X3 of SARS-CoV Urbani / Binding of serum 6 to linear peptides of protein X4 of SARS-CoV Urbani / Binding of serum 37 to linear peptides of protein X4 of SARS-CoV Urbani / Binding of serum 37 to looped/cyclic peptides of protein X4 of SARS-CoV Urbani / Binding of serum 6 to linear peptides of protein X5 of SARS-CoV Urbani / Binding of serum 37 to linear peptides of protein X5 of SARS-CoV Urbani / Binding of serum 37 to looped/cyclic peptides of protein X5 of SARS-CoV Urbani / Binding of serum 6 to linear peptides of protein N of SARS-CoV Urbani / Binding of serum 37 to linear peptides of protein N of SARS-CoV Urbani / Binding of serum 6 to linear peptide (PEPSCAN-ELISA) / Binding of serum 1a to looped/cyclic peptides of protein N of SARS-CoV Urbani / Binding of serum 1b to looped/cyclic peptides of protein N of SARS-CoV Urbani / Binding of serum 2 to looped/cyclic peptides of protein N of SARS-CoV Urbani / Binding of serum 6 to looped/cyclic peptides of protein N of SARS-CoV Urbani / Binding of serum 37 to looped/cyclic peptides of protein N of SARS-CoV Urbani / Binding of serum 62 to looped/cyclic peptides of protein N of SARS-CoV Urbani / Binding of serum London to looped/cyclic peptides of protein N of SARS-CoV Urbani / Binding of serum SARS-green to looped/cyclic peptides of protein N of SARS-CoV Urbani: unit not given here

HATATIPLQASLPFG
0.4: Binding of serum SARS-green to looped/cyclic peptide (PEPSCAN-ELISA) [3] | Binding of serum SARS-yellow to linear peptides of protein X1 of SARS-CoV Urbani [3] | Binding of serum SARS-yellow to looped/cyclic peptide (PEPSCAN-ELISA) [3]
0.8: Binding of Control serum Blood-bank to linear peptides [2] | Binding of serum 1a to looped/cyclic peptide (PEPSCAN-ELISA) [3] | Binding of serum 1b to linear peptides of protein X1 of SARS-CoV Urbani [3] | Binding of serum 37 to linear peptides of protein X1 of SARS-CoV Urbani [3]
0.2: Binding of serum London to looped/cyclic peptide (PEPSCAN-ELISA) [3] | Binding of serum SARS-green to linear peptides of protein X1 of SARS-CoV Urbani [3]
0.5: Binding of a rabbit serum to looped peptides [1] | Binding of serum 2 to looped/cyclic peptide (PEPSCAN-ELISA) [3] | Binding of serum 6 to looped/cyclic peptide (PEPSCAN-ELISA) [3]
0.7: Binding of Control Serum Blood-Bank to Looped peptides [2] | Binding of Control serum LUMC to looped peptides [2] | Binding of serum 62 to linear peptides of protein X1 of SARS-CoV Urbani [3]
0.9: Binding of serum 1a to linear peptides of protein X1 of SARS-CoV Urbani [3]
0.6: Binding of Control serum LUMC to linear peptides [2] | Binding of serum 1b to looped/cyclic peptide (PEPSCAN-ELISA) [3] | Binding of serum 2 to linear peptides of protein X1 of SARS-CoV Urbani [3] | Binding of serum 6 to linear peptides of protein X1 of SARS-CoV Urbani [3] | Binding of serum 37 to looped/cyclic peptide (PEPSCAN-ELISA) [3] | Binding of serum 62 to looped/cyclic peptide (PEPSCAN-ELISA) [3]
0.3: Binding of serum London to linear peptides of protein X1 of SARS-CoV Urbani [3]
0.1: Binding of a rabbit serum to linear peptides [1]

HFAFACADGTRHTYQ
0.2: Binding of serum London to looped/cyclic peptides of protein X4 of SARS-CoV Urbani [3] | Binding of serum SARS-green to looped/cyclic peptides of protein X4 of SARS-CoV Urbani [3]
0.6: Binding of Control serum Blood-bank to linear peptides [2] | Binding of serum 1a to looped/cyclic peptides of protein X4 of SARS-CoV Urbani [3] | Binding of serum 2 to looped/cyclic peptides of protein X4 of SARS-CoV Urbani [3] | Binding of serum 6 to linear peptides of protein X4 of SARS-CoV Urbani [3] | Binding of serum 6 to looped/cyclic peptides of protein X4 of SARS-CoV Urbani [3] | Binding of serum 37 to linear peptides of protein X4 of SARS-CoV Urbani [3] | Binding of serum 37 to looped/cyclic peptides of protein X4 of SARS-CoV Urbani [3] | Binding of serum 62 to linear peptides of protein X4 of SARS-CoV Urbani [3] | Binding of serum London to linear peptides of protein X4 of SARS-CoV Urbani [3] | Binding of serum SARS-green to linear peptides of protein X4 of SARS-CoV Urbani [3]
0.7: Binding of Control serum LUMC to linear peptides [2] | Binding of Control serum LUMC to looped peptides [2] | Binding of serum 1a to linear peptides of protein X4 of SARS-CoV Urbani [3]
0.5: Binding of serum 1b to linear peptides of protein X4 of SARS-CoV Urbani [3] | Binding of serum 1b to looped/cyclic peptides of protein X4 of SARS-CoV Urbani [3] | Binding of serum 62 to looped/cyclic peptides of protein X4 of SARS-CoV Urbani [3]
0.1: Rabbit serum looped peptides [1] | Binding of serum SARS-yellow to linear peptides of protein X4 of SARS-CoV Urbani [3]
0.8: Binding of Control Serum Blood-Bank to Looped peptides [2]
0.4: Rabbit serum linear peptides [1] | Binding of serum 2 to linear peptides of protein X4 of SARS-CoV Urbani [3] | Binding of serum SARS-yellow to looped/cyclic peptides of protein X4 of SARS-CoV Urbani [3]

HITVSQIQLSLLKVT
0.8: Binding of Control serum LUMC to linear peptides [2] | Binding of serum London to looped/cyclic peptides of protein X2 of SARS-CoV Urbani [3] | Binding of serum SARS-yellow to linear peptides of protein X2 [3]
0.7: Binding of a rabbit serum to linear peptides [1] | Binding of serum 37 to linear peptides of protein X2 [3]
0.5: Binding of Control serum LUMC to looped peptides [2] | Binding of serum 1a to looped/cyclic peptides of protein X2 of SARS-CoV Urbani [3] | Binding of serum 1b to linear peptides of protein X2 [3] | Binding of serum 1b to looped/cyclic peptides of protein X2 of SARS-CoV Urbani [3] | Binding of serum 2 to linear peptides of protein X2 [3] | Binding of serum 2 to looped/cyclic peptides of protein X2 of SARS-CoV Urbani [3] | Binding of serum 6 to linear peptides of protein X2 [3] | Binding of serum 37 to looped/cyclic peptides of protein X2 of SARS-CoV Urbani [3] | Binding of serum 62 to linear peptides of protein X2 [3]
0.2: Binding of serum SARS-green to linear peptides of protein X2 [3]
0.6: Binding of Control Serum Blood-Bank to Looped peptides [2] | Binding of Control serum Blood-bank to linear peptides [2] | Binding of serum 1a to linear peptides of protein X2 [3] | Binding of serum 62 to looped/cyclic peptides of protein X2 of SARS-CoV Urbani [3] | Binding of serum SARS-yellow to looped/cyclic peptides of protein X2 of SARS-CoV Urbani [3]
0.4: Binding of a rabbit serum to looped peptides [1] | Binding of serum 6 to looped/cyclic peptides of protein X2 of SARS-CoV Urbani [3] | Binding of serum London to linear peptides of protein X2 [3] | Binding of serum SARS-green to looped/cyclic peptides of protein X2 of SARS-CoV Urbani [3]
